Data on five compounds can be found in patent US9238639B2, “Aromatic ring compound” (TAKEDA PHARMACEUTICAL COMPANY LIMITED, priority 2012, dated 2016).

In this assay the target is T1, human GOAT (Homo sapiens, UniProt Q96T53).
T1 construct: made in house; host or cells: Sf9 insect cells (BacToBac baculovirus, pFastBac1 vector); microsome fraction
T1 sequence (Q96T53 1-435): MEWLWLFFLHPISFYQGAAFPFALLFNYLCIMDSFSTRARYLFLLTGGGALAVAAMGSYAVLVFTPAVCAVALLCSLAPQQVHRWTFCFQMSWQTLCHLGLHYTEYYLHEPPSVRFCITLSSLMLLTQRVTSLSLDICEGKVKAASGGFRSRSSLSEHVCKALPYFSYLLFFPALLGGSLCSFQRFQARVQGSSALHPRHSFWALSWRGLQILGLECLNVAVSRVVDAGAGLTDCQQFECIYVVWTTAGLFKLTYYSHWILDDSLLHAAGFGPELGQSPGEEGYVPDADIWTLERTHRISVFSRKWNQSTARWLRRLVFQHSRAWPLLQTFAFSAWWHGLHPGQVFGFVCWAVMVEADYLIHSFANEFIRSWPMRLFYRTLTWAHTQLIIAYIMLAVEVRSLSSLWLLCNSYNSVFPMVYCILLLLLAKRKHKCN
Kind of assay: GOAT enzyme activity measurement by HTRF method (human GOAT-expressing microsome fraction). In kind it is biochemical. The settings on record: 10 μM compound; human GOAT-expressing Sf9 microsome fraction; octanoyl-CoA and Ghrelin-biotin substrates; 0% control without compound, 100% control without enzyme.

Regarding `Cc1nc(C(F)(F)F)ccc1COc1cc(F)c2c(CC(=O)O)csc2c1` [Example 305, (4-Fluoro-6-((2-methyl-6-(trifluoromethyl)pyridin-3-yl)methoxy)-1-benzothiophen-3-yl)acetic acid], the inhibition (as a rule, the change of the read-out against control, counted positive when it falls) at 10 µM is 102%. Then `COC(=O)Cc1c(C)sc2cc(OCc3cc(C(F)(F)F)nn3C)cc(Cl)c12` [Example 306, Methyl (4-chloro-2-methyl-6-((1-methyl-3-(trifluoromethyl)-1H-pyrazol-5-yl)methoxy)-1-benzothiophen-3-yl)acetate], with 99.5%; and `Cc1sc2cc(OCc3cc(C(F)(F)F)nn3C)cc(Cl)c2c1CC(=O)O` [Example 307, (4-Chloro-2-methyl-6-((1-methyl-3-(trifluoromethyl)-1H-pyrazol-5-yl)methoxy)-1-benzothiophen-3-yl)acetic acid], with 106%; and `COC(=O)Cc1c(C)sc2cc(OCc3ccc(C(F)(F)F)nc3C)cc(Cl)c12` [Example 308, Methyl (4-chloro-2-methyl-6-((2-methyl-6-(trifluoromethyl)pyridin-3-yl)methoxy)-1-benzothiophen-3-yl)acetate], with 51.5%. Then `Cc1nc(C(F)(F)F)ccc1COc1cc(Cl)c2c(CC(=O)O)c(C)sc2c1` [Example 309, (4-Chloro-2-methyl-6-((2-methyl-6-(trifluoromethyl)pyridin-3-yl)methoxy)-1-benzothiophen-3-yl)acetic acid], with 103%.
